{"source": "PubChem BioAssay AID248", "about": "(DTP/NCI, 2004)", "tested_on": "L1210 leukemia ip in BDF1 mice, survival T/C", "test": "NCI In Vivo Anticancer Drug Screen. Data for tumor model L1210 Leukemia (intraperitoneal) in B6D2F1 (BDF1) mice", "conditions": "endpoint: mean survival time, higher = longer survival", "in_short": "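Read-out is survival time, reported as the treated-group measurement over the vehicle-control measurement.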", "key": {"[1]": {"conditions": "dose: 100.0 mg/kg/injection, schedule: Q04DX003 (ip), vehicle: saline with Tween-80"}, "[2]": {"conditions": "dose: 200.0 mg/kg/injection, schedule: Q04DX003 (ip), vehicle: saline with Tween-80"}, "[3]": {"conditions": "dose: 400.0 mg/kg/injection, schedule: Q04DX003 (ip), vehicle: saline with Tween-80"}, "[4]": {"conditions": "dose: 100.0 mg/kg/injection, schedule: Q04DX002 (ip), vehicle: saline"}, "[5]": {"conditions": "dose: 100.0 mg/kg/injection, schedule: Q04DX003 (ip), vehicle: saline"}, "[6]": {"conditions": "dose: 200.0 mg/kg/injection, schedule: Q04DX003 (ip), vehicle: saline"}, "[7]": {"conditions": "dose: 100.0 mg/kg/injection, schedule: Q04DX002 (ip), vehicle: Klucel (hydroxypropylcellulose) (HPC)"}, "[8]": {"conditions": "dose: 200.0 mg/kg/injection, schedule: Q04DX002 (ip), vehicle: Klucel (hydroxypropylcellulose) (HPC)"}}, "note": "Toxic doses and inconclusive results are not listed.", "data": [{"smiles": "CC1CC2C3CC(F)C4=CC(=O)C=CC4(C)C3(F)C(O)CC2(C)C1(O)C(=O)COC(=O)C(C)(C)C", "note": "(centres undefined)", "values": [{"measurement": "T/C", "setting": "dose: 100.0 mg/kg/injection, schedule: Q01DX001 (ip), vehicle: steriod suspending solution", "result": "106 % of control"}, {"measurement": "T/C", "setting": "dose: 200.0 mg/kg/injection, schedule: Q01DX001 (ip), vehicle: steriod suspending solution", "result": "95 % of control"}, {"measurement": "T/C", "setting": "dose: 400.0 mg/kg/injection, schedule: Q01DX001 (ip), vehicle: steriod suspending solution", "result": "95 % of control"}]}, {"smiles": "COc1cc(Br)c(CCC(N)=O)cc1OC", "values": [{"measurement": "T/C", "setting": "[1]", "result": "96 % of control"}, {"measurement": "T/C", "setting": "[2]", "result": "95 % of control"}, {"measurement": "T/C", "setting": "[3]", "result": "93 % of control"}]}, {"smiles": "CN(C)N=Nc1ccc2ncccc2c1[N+](=O)[O-]", "values": [{"measurement": "T/C", "setting": "dose: 100.0 mg/kg/injection, schedule: Q01DX001 (ip), vehicle: other", "result": "105 % of control"}, {"measurement": "T/C", "setting": "dose: 200.0 mg/kg/injection, schedule: Q01DX001 (ip), vehicle: other", "result": "103 % of control"}]}, {"smiles": "COS(=O)c1ccccc1C(=O)NOCc1ccccc1", "note": "(centres undefined)", "values": [{"measurement": "T/C", "setting": "dose: 50.0 mg/kg/injection, schedule: Q01DX001 (ip), vehicle: Klucel (hydroxypropylcellulose) (HPC)", "result": "103 % of control"}, {"measurement": "T/C", "setting": "dose: 100.0 mg/kg/injection, schedule: Q01DX001 (ip), vehicle: Klucel (hydroxypropylcellulose) (HPC)", "result": "100 % of control"}, {"measurement": "T/C", "setting": "dose: 200.0 mg/kg/injection, schedule: Q01DX001 (ip), vehicle: Klucel (hydroxypropylcellulose) (HPC)", "result": "107 % of control"}]}, {"smiles": "N.N.N.N.N.N#CN=C(N)N.[Co+3].[O-][Cl+3]([O-])([O-])[O-]", "values": [{"measurement": "T/C", "setting": "[4]", "result": "171 % of control"}]}, {"smiles": "NCCCN", "values": [{"measurement": "T/C", "setting": "[5]", "result": "97 % of control"}, {"measurement": "T/C", "setting": "[6]", "result": "98 % of control"}, {"measurement": "T/C", "setting": "dose: 400.0 mg/kg/injection, schedule: Q04DX003 (ip), vehicle: saline", "result": "98 % of control"}]}, {"smiles": "COc1cc(/C=C2\\C(O)C3CCN2CC3)cc(OC)c1OC", "note": "(centres undefined)", "values": [{"measurement": "T/C", "setting": "[4]", "result": "115 % of control"}, {"measurement": "T/C", "setting": "dose: 200.0 mg/kg/injection, schedule: Q04DX002 (ip), vehicle: saline", "result": "118 % of control"}]}, {"smiles": "C=CC(=C)OC", "values": [{"measurement": "T/C", "setting": "dose: 25.0 mg/kg/injection, schedule: Q01DX005 (ip), vehicle: saline", "result": "117 % of control"}, {"measurement": "T/C", "setting": "dose: 50.0 mg/kg/injection, schedule: Q01DX005 (ip), vehicle: saline", "result": "113 % of control"}, {"measurement": "T/C", "setting": "dose: 100.0 mg/kg/injection, schedule: Q01DX005 (ip), vehicle: saline", "result": "111 % of control"}, {"measurement": "T/C", "setting": "dose: 200.0 mg/kg/injection, schedule: Q01DX005 (ip), vehicle: saline", "result": "107 % of control"}, {"measurement": "T/C", "setting": "dose: 400.0 mg/kg/injection, schedule: Q01DX005 (ip), vehicle: saline", "result": "111 % of control"}]}, {"smiles": "Cc1c(Cl)cccc1NC(=O)C1CC(Br)C(Br)CC1C(=O)O", "note": "(centres undefined)", "values": [{"measurement": "T/C", "setting": "[7]", "result": "95 % of control"}, {"measurement": "T/C", "setting": "[8]", "result": "103 % of control"}, {"measurement": "T/C", "setting": "dose: 400.0 mg/kg/injection, schedule: Q04DX002 (ip), vehicle: Klucel (hydroxypropylcellulose) (HPC)", "result": "95 % of control"}]}, {"smiles": "CC([NH-])=O.CC([NH-])=O.[Cl][Pt+2][Cl]", "values": [{"measurement": "T/C", "setting": "dose: 50.0 mg/kg/injection, schedule: Q01DX009 (ip), vehicle: water", "result": "120 % of control"}, {"measurement": "T/C", "setting": "dose: 100.0 mg/kg/injection, schedule: Q01DX009 (ip), vehicle: water", "result": "115 % of control"}, {"measurement": "T/C", "setting": "dose: 100.0 mg/kg/injection, schedule: Q04DX003 (ip), vehicle: water", "result": "114 % of control"}, {"measurement": "T/C", "setting": "dose: 200.0 mg/kg/injection, schedule: Q04DX003 (ip), vehicle: water", "result": "110 % of control"}]}, {"smiles": "CCC(C)C(CN)(CCCN1CCCCC1)c1cccc2ccccc12", "note": "(centres undefined)", "values": [{"measurement": "T/C", "setting": "[5]", "result": "97 % of control"}, {"measurement": "T/C", "setting": "[6]", "result": "95 % of control"}]}, {"smiles": "CCn1c2ccccc2c2cc(NC(C)=O)ccc21", "values": [{"measurement": "T/C", "setting": "[1]", "result": "103 % of control"}, {"measurement": "T/C", "setting": "[2]", "result": "98 % of control"}, {"measurement": "T/C", "setting": "[3]", "result": "101 % of control"}]}, {"smiles": "CC[CH2][Sn]([CH2]CC)([O]S(C)(=O)=O)[O]S(C)(=O)=O", "values": [{"measurement": "T/C", "setting": "dose: 1.56 mg/kg/injection, schedule: Q01DX009 (ip), vehicle: Klucel (hydroxypropylcellulose) (HPC)", "result": "115 % of control"}, {"measurement": "T/C", "setting": "dose: 3.12 mg/kg/injection, schedule: Q01DX009 (ip), vehicle: Klucel (hydroxypropylcellulose) (HPC)", "result": "97 % of control"}]}, {"smiles": "COC(=O)C(COC1OC(COC(C)=O)C(OC(C)=O)C(OC(C)=O)C1NC(C)=O)NC(=O)OCc1ccccc1", "note": "(centres undefined)", "values": [{"measurement": "T/C", "setting": "dose: 50.0 mg/kg/injection, schedule: Q04DX002 (ip), vehicle: Klucel (hydroxypropylcellulose) (HPC)", "result": "91 % of control"}, {"measurement": "T/C", "setting": "[7]", "result": "98 % of control"}, {"measurement": "T/C", "setting": "[8]", "result": "88 % of control"}]}]}
